pIC50: −log10 of the molar value.

The assay deals with T1, BACE2 (Rattus norvegicus, UniProt Q6IE75).
T1 construct: endogenous cellular BACE2 in the Ins1e rat cell line; endogenous in cells; host or cells: INS-TMEM27 (INS1e-derived rat beta-cell line with doxycycline-inducible full-length hTMEM27)
T1 sequence (Q6IE75 63-514): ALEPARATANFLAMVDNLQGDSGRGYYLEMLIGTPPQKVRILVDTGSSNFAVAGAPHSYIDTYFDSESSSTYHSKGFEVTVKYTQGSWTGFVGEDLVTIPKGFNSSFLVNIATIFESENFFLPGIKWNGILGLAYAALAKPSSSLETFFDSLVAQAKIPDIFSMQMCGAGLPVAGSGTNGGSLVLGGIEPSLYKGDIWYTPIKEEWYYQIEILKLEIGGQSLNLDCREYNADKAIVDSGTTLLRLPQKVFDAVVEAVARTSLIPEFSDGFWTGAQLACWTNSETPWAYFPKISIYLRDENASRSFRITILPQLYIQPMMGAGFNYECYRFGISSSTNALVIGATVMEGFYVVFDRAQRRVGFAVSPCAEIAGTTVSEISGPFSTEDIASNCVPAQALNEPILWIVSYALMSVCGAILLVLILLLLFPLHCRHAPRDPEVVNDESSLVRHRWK
Kind of assay: Assay for BACE inhibition by measuring cellular TMEM27 cleavage (INS-TMEM27 cells, ELISA of shed TMEM27). The format is cell-based. The note with it: inhibition of human TMEM27 cleavage by endogenous cellular BACE2 in INS1e-derived INS-TMEM27 rat cell line; ELISA of shed TMEM27 in supernatant. In outline:
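Rat INS1e-derived cells with doxycycline-inducible full-length human TMEM27, cleaved by endogenous BACE2. After 2 days' culture, inhibitor added; 2 h later, doxycycline to 500 ng/ml final, then 46 h at 37 °C. Shed TMEM27 in medium quantified by sandwich ELISA; IC50 from curve fit.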

As for `O=C(N[C@@H](Cc1ccccc1)[C@H](O)CNCc1cccc(C(F)(F)F)c1)c1cccc(C(=O)N2CCCC2c2cccs2)c1` (stereo partly drawn) [Example 19, N-[(1S,2R)-1-Benzyl-2-hydroxy-3-(3-trifluoromethyl-benzylamino)-propyl]-3-(2-thiophen-2-yl-pyrrolidine-1-carbonyl)-benzamide], the pIC50 (usually the negative decadic logarithm of the IC50, by convention in mol/L) was 8.10. Turning to `O=C(N[C@@H](Cc1ccccc1)[C@H](O)CNCc1cccc(C(F)(F)F)c1)c1cccc(C(=O)N2CCC[C@@H]2c2ccccc2)c1` [Example 66, N-[(1S,2R)-1-Benzyl-2-hydroxy-3-(3-trifluoromethyl-benzylamino)-propyl]-3-((R)-2-phenyl-pyrrolidine-1-carbonyl)-benzamide], the pIC50 was 6.50. Compared with the last compound, the pIC50 is 1.60 log units lower.

The compound `COc1cccc(CNC[C@@H](O)[C@H](Cc2ccccc2)NC(=O)c2cccc(C(=O)N(C)Cc3ccccn3)c2)c1` [Example 28, N-[(1S,2R)-1-Benzyl-2-hydroxy-3-(3-methoxy-benzylamino)-propyl]-N′-methyl-N′-pyridin-2-ylmethyl-isophthalamide] had a pIC50 of 6.29. This pIC50 lies 0.21 log units lower than the previous one. `Cc1ccc(C2CCCN2C(=O)c2cccc(C(=O)N[C@@H](Cc3ccccc3)[C@H](O)CNCc3cccc(C(F)(F)F)c3)c2)cc1` (stereo partly drawn) [Example 55, N-[(1S,2R)-1-Benzyl-2-hydroxy-3-(3-trifluoromethyl-benzylamino)-propyl]-3-(2-p-tolyl-pyrrolidine-1-carbonyl)-benzamide] showed a pIC50 of 7.38. This pIC50 is 1.09 log units higher than that of the compound before. Consider `O=C(N[C@@H](Cc1ccccc1)[C@H](O)CNCc1cccc(C(F)(F)F)c1)c1cccc(C(=O)N2CCCC2c2cccc(Cl)c2)c1` (stereo partly drawn) [Example 57, N-[(1S,2R)-1-Benzyl-2-hydroxy-3-(3-trifluoromethyl-benzylamino)-propyl]-3-[2-(3-chloro-phenyl)-pyrrolidine-1-carbonyl]-benzamide], for which the pIC50 was 6.21. On to `CCn1cc(CNC[C@@H](O)[C@H](Cc2ccccc2)NC(=O)c2cc(C)cc(C(=O)N3CCCC3c3cccs3)c2)cn1` (stereo partly drawn) [Example 39, N-{(1S,2R)-1-Benzyl-3-[(1-ethyl-1H-pyrazol-4-ylmethyl)-amino]-2-hydroxy-propyl}-3-methyl-5-(2-thiophen-2-yl-pyrrolidine-1-carbonyl)-benzamide], for which the pIC50 is 9.00. Compared with the last compound, the pIC50 is 2.79 log units higher.

In the case of `CC(C)CC1CCCN1C(=O)c1cccc(C(=O)N[C@@H](Cc2ccccc2)[C@H](O)CNCc2cccc(C(F)(F)F)c2)c1` (stereo partly drawn) [Example 70, N-[(1S,2R)-1-Benzyl-2-hydroxy-3-(3-trifluoromethyl-benzylamino)-propyl]-3-(2-isobutyl-pyrrolidine-1-carbonyl)-benzamide], the pIC50 is 6.83. Then `Cc1csc([C@H]2CCCN2C(=O)c2cccc(C(=O)N[C@@H](Cc3ccccc3)[C@H](O)CNCc3cccc(C(F)(F)F)c3)c2)n1` [Example 11, N-[(1S,2R)-1-Benzyl-2-hydroxy-3-(3-trifluoromethyl-benzylamino)-propyl]-3-[(R)-2-(4-methyl-thiazol-2-yl)-pyrrolidine-1-carbonyl]-benzamide], with 8.05; and `Cc1cc(C2CCCN2C(=O)c2cccc(C(=O)N[C@@H](Cc3ccccc3)[C@H](O)CNCc3cccc(C(F)(F)F)c3)c2)on1` (stereo partly drawn) [Example 16, N-[(1S,2R)-1-Benzyl-2-hydroxy-3-(3-trifluoromethyl-benzylamino)-propyl]-3-[2-(3-methyl-isoxazol-5-yl)-pyrrolidine-1-carbonyl]-benzamide], with 7.26; and `CCn1cc(CNC[C@@H](O)[C@H](Cc2ccccc2)NC(=O)c2cc(C)cc(C(=O)N3CCC[C@@H]3c3nc(C)cs3)c2)cn1` [Example 34, N-{(1S,2R)-1-Benzyl-3-[(1-ethyl-1H-pyrazol-4-ylmethyl)-amino]-2-hydroxy-propyl}-3-methyl-5-[(R)-2-(4-methyl-thiazol-2-yl)-pyrrolidine-1-carbonyl]-benzamide], with 6.84. Compound `O=C(N[C@@H](Cc1ccccc1)[C@H](O)CNCc1cccc(C(F)(F)F)c1)c1cccc(C(=O)N2CCC[C@H]2Cc2ccccc2)c1` [Example 65, N-[(1S,2R)-1-Benzyl-2-hydroxy-3-(3-trifluoromethyl-benzylamino)-propyl]-3-((S)-2-benzyl-pyrrolidine-1-carbonyl)-benzamide] had a pIC50 of 7.29. Compound `O=C(N[C@@H](Cc1ccccc1)[C@H](O)CNCc1cccc(C(F)(F)F)c1)c1cccc(C(=O)N2CCCC2c2cccc(F)c2)c1` (stereo partly drawn) [Example 68, N-[(1S,2R)-1-Benzyl-2-hydroxy-3-(3-trifluoromethyl-benzylamino)-propyl]-3-[2-(3-fluoro-phenyl)-pyrrolidine-1-carbonyl]-benzamide] had a negative-log IC50 (pIC50) of 8.70. In the case of `O=C(N[C@@H](Cc1ccccc1)[C@H](O)CNCc1cccc(C(F)(F)F)c1)c1cccc(C(=O)N2CCCC2c2ccccc2)c1` (stereo partly drawn) [Example 12, N-[(1S,2R)-1-Benzyl-2-hydroxy-3-(3-trifluoromethyl-benzylamino)-propyl]-3-(2-phenyl-pyrrolidine-1-carbonyl)-benzamide], the pIC50 was 7.12.

`Cc1csc([C@H]2CCCN2C(=O)c2cccc(C(=O)N[C@@H](Cc3ccccc3)[C@H](O)CNCc3cccc(OC(F)(F)F)c3)c2)n1` [Example 21, N-[(1S,2R)-1-Benzyl-2-hydroxy-3-(3-trifluoromethoxy-benzylamino)-propyl]-3-[(R)-2-(4-methyl-thiazol-2-yl)-pyrrolidine-1-carbonyl]-benzamide] showed a negative-log IC50 (pIC50) of 7.43. This pIC50 is 0.31 log units higher than that of the compound before. The compound `Cc1cc(C(=O)N[C@@H](Cc2ccccc2)[C@H](O)CNCc2cccc(C(F)(F)F)c2)cc(C(=O)N2CCCC2c2ccccc2)c1` (stereo partly drawn) [Example 51, N-[(1S,2R)-1-Benzyl-2-hydroxy-3-(3-trifluoromethyl-benzylamino)-propyl]-3-methyl-5-(2-phenyl-pyrrolidine-1-carbonyl)-benzamide] had a pIC50 of 9.40. `CN(c1cc(C(=O)N[C@@H](Cc2ccccc2)[C@H](O)CNCc2cccc(OC(F)(F)F)c2)cc(C(=O)N2CCCC2c2ccccc2)c1)S(C)(=O)=O` (stereo partly drawn) [Example 42, N-[(1S,2R)-1-Benzyl-2-hydroxy-3-(3-trifluoromethoxy-benzylamino)-propyl]-3-(methanesulfonyl-methyl-amino)-5-(2-phenyl-pyrrolidine-1-carbonyl)-benzamide] showed a pIC50 of 7.21. Against the preceding compound, the pIC50 is 2.19 log units lower. As to `O=C(N[C@@H](Cc1ccccc1)[C@H](O)CNCc1cccc(OC(F)(F)F)c1)c1cccc(C(=O)N2CCCC2c2cccs2)c1` (stereo partly drawn) [Example 32, N-[(1S,2R)-1-Benzyl-2-hydroxy-3-(3-trifluoromethoxy-benzylamino)-propyl]-3-(2-thiophen-2-yl-pyrrolidine-1-carbonyl)-benzamide], the pIC50 is 6.86.

The compound `COc1cccc(CNC[C@@H](O)[C@H](Cc2ccccc2)NC(=O)c2cccc(C(=O)N3CCCC3c3ccccc3)c2)c1` (stereo partly drawn) [Example 22, N-[(1S,2R)-1-Benzyl-2-hydroxy-3-(3-methoxy-benzylamino)-propyl]-3-(2-phenyl-pyrrolidine-1-carbonyl)-benzamide] gave a negative-log IC50 (pIC50) of 7.51. Compared with the last compound, the pIC50 is 0.65 log units higher. In turn, `O=C(NCc1ccccn1)c1cccc(C(=O)N[C@@H](Cc2ccccc2)[C@H](O)CNCc2cccc(C(F)(F)F)c2)c1` [Example 7, N-[(1S,2R)-1-Benzyl-2-hydroxy-3-(3-trifluoromethyl-benzylamino)-propyl]-N′-pyridin-2-ylmethyl-isophthalamide] had a negative logarithm of the IC50 (pIC50) of 6.32. This pIC50 lies 1.19 log units lower than the previous one.

With `O=C(N[C@@H](Cc1ccccc1)[C@H](O)CNCc1cccc(OC(F)(F)F)c1)c1cccc(C(=O)N2CCCC2c2ccncc2)c1` (stereo partly drawn) [Example 4, N-[(1S,2R)-1-Benzyl-2-hydroxy-3-(3-trifluoromethoxy-benzylamino)-propyl]-3-(2-pyridin-4-yl-pyrrolidine-1-carbonyl)-benzamide], the pIC50 was 6.33.

For the origin of these results see US20120053200A1, “BACE 2 INHIBITORS” (priority 2010, published 2012).
